# Assay results taken from PMC4448990 (Pharmacology Research & Perspectives, 2015).
# Values joined by “and” are separate entries in the source; they are usually repeats but may differ in a detail not shown here. Equal entries are not always repeated. Where two headings read alike, the source gives them in different places.
# Experiments:
# [1] = tested on: Inositol triphosphate, IP3; experiment: in vitro selectivity profile; assay type: binding; settings: eslicarbazepine 400 μmol/L
# [2] = tested on: Glycine, strychnine-sensitive; experiment: in vitro selectivity profile; assay type: binding; settings: eslicarbazepine 400 μmol/L
# [3] = tested on: Cholecystokinin, CCK2 (CCKB); experiment: in vitro selectivity profile; assay type: binding; settings: eslicarbazepine 400 μmol/L
# Dopamine, D2s (h) = Dopamine, D2s (h) (Homo sapiens, UniProt P14416); experiment: in vitro selectivity profile; assay type: binding
# Neurokinin, NK1 = experiment: in vitro selectivity profile; assay type: binding; settings: eslicarbazepine 400 μmol/L
# Serotonin, 5HT3 = experiment: in vitro selectivity profile; assay type: binding; settings: eslicarbazepine 400 μmol/L
# Glutamate, mGluR5 = experiment: in vitro selectivity profile; assay type: binding; settings: eslicarbazepine 400 μmol/L
# [4] = molecular target: human α5β2γ2 GABAA receptors (Homo sapiens, UniProt P18507+P31644+P47870); experiment: submaximal GABA currents in Ltk cells; assay type: cell-based
# Adrenergic, alpha2A (h) = Adrenergic, alpha2A (h) (Homo sapiens, UniProt P08913); experiment: in vitro selectivity profile; assay type: binding
# [5] = molecular target: Protease, caspase, CASP-8 (h) (Homo sapiens, UniProt Q14790); experiment: in vitro selectivity profile; assay type: biochemical
# Sigma 1 = experiment: in vitro selectivity profile; assay type: binding; settings: eslicarbazepine 400 μmol/L
# Serotonin, 5HT2A (h) = Serotonin, 5HT2A (h) (Homo sapiens, UniProt P28223); experiment: in vitro selectivity profile; assay type: binding
# Melatonin, nonselective = experiment: in vitro selectivity profile; assay type: binding; settings: eslicarbazepine 400 μmol/L
# Dopamine transporter (h) = Dopamine transporter (h) (Homo sapiens, UniProt Q01959); experiment: in vitro selectivity profile; assay type: binding
# Dopamine, D4.2 (h) = Dopamine, D4.2 (h) (Homo sapiens, UniProt P21917, DEL265-296); experiment: in vitro selectivity profile; assay type: binding
# [6] = molecular target: Anhydrase, carbonic, isozyme I (h) (Homo sapiens, UniProt P00915); experiment: in vitro selectivity profile; assay type: biochemical
# GABA A, agonist site = experiment: in vitro selectivity profile; assay type: binding; settings: eslicarbazepine 400 μmol/L
# Neurotensin (h) = Neurotensin (h) (Homo sapiens, UniProt P30989); experiment: in vitro selectivity profile; assay type: binding
# Oxidase, MAO-A, central = experiment: in vitro selectivity profile; assay type: biochemical; settings: eslicarbazepine 400 μmol/L
# [7] = tested on: Serotonin, 5HT1, nonselective; experiment: in vitro selectivity profile; assay type: binding; settings: eslicarbazepine 400 μmol/L
# [8] = tested on: persistent Na+ current (INaP); settings: 300 μmol/L, ref Döser et al. [2013a], [2014], cited from earlier work
# [9] = molecular target: human Nav1.3 sodium channels (Homo sapiens, UniProt Q9NY46); experiment: whole-cell patch clamp, Nav1.3 in CHO-K1 cells; assay type: cell-based; settings: 250 μmol/L
# [10] = tested on: Potassium channel, ATP-sensitive; experiment: in vitro selectivity profile; assay type: binding; settings: eslicarbazepine 400 μmol/L
# Glutamate, MK-801 site = experiment: in vitro selectivity profile; assay type: binding; settings: eslicarbazepine 400 μmol/L
# [11] = tested on: Glutamate, chloride-dependent site; experiment: in vitro selectivity profile; assay type: binding; settings: eslicarbazepine 400 μmol/L
# [12] = molecular target: Protease, caspase, CASP-3 (h) (Homo sapiens, UniProt P42574); experiment: in vitro selectivity profile; assay type: biochemical
# Serotonin, 5HT2C = experiment: in vitro selectivity profile; assay type: binding; settings: eslicarbazepine 400 μmol/L
# [13] = cited from earlier work
# Kinase, protein, Fyn (h) = Kinase, protein, Fyn (h) (Homo sapiens, UniProt P06241); experiment: in vitro selectivity profile; assay type: biochemical
# human GRIA1 receptor = human GRIA1 receptor (Homo sapiens, UniProt P42261); experiment: AMPA-receptor-mediated currents in CHO cells; assay type: cell-based; settings: CHO cells, human GRIA1
# [14] = tested on: Imidazoline, I2 [central]; experiment: in vitro selectivity profile; assay type: binding; settings: eslicarbazepine 400 μmol/L
# [15] = molecular target: human α2β2γ2 GABAA receptors (Homo sapiens, UniProt P18507+P47869+P47870); experiment: submaximal GABA currents in Ltk cells; assay type: cell-based
# Glutamate, kainate site = experiment: in vitro selectivity profile; assay type: binding; settings: eslicarbazepine 400 μmol/L
# [16] = tested on: Glutamate, NMDA, glycine (strychnine-insensitive); experiment: in vitro selectivity profile; assay type: binding; settings: eslicarbazepine 400 μmol/L
# [17] = molecular target: Esterase, acetylcholine (h) (Homo sapiens, UniProt P22303); experiment: in vitro selectivity profile; assay type: biochemical
# hCav2.1 calcium channels = hCav2.1 calcium channels (Homo sapiens, UniProt O00555); experiment: whole-cell patch clamp, hCav2.1 in CHO cells; assay type: cell-based; settings: IC50, hCav2.1 calcium peak currents, 0.3–1000 μmol/L, holding potential −80 mV
# [18] = molecular target: human α3β2γ2 GABAA receptors (Homo sapiens, UniProt P18507+P34903+P47870); experiment: submaximal GABA currents in Ltk cells; assay type: cell-based
# [19] = molecular target: Anhydrase, carbonic, isozyme II (h) (Homo sapiens, UniProt P00918); experiment: in vitro selectivity profile; assay type: biochemical
# [20] = Amygdala kindling, ESL 200 mg/kg i.p., 15 min, ref Soerensen et al. ([2011])
# [21] = Amygdala kindling, ESL 300 mg/kg i.p., 15 min, ref Soerensen et al. ([2011])
# [22] = Corneal kindling, ESL 100 mg/kg i.p., 60 min, ref Pekcec et al. ([2011])
# [23] = MES test, ESL 50 mg/kg p.o., 60 min, ref Pires et al. ([2011])
# Sequence of human α3β2γ2 GABAA receptors (P34903 29-492): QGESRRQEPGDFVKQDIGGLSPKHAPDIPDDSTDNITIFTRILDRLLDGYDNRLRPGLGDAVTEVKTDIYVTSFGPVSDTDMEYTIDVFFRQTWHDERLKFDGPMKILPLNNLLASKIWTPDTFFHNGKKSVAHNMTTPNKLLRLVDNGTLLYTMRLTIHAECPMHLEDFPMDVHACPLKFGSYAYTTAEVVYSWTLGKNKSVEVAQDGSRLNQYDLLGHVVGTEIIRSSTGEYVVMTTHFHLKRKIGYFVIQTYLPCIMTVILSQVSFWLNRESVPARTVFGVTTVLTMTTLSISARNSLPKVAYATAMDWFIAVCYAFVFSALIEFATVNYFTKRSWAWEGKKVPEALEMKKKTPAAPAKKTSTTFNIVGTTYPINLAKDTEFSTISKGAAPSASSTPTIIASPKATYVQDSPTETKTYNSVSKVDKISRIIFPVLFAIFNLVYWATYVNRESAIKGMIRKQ
# Sequence of human α3β2γ2 GABAA receptors (P47870 25-512 limits assumed): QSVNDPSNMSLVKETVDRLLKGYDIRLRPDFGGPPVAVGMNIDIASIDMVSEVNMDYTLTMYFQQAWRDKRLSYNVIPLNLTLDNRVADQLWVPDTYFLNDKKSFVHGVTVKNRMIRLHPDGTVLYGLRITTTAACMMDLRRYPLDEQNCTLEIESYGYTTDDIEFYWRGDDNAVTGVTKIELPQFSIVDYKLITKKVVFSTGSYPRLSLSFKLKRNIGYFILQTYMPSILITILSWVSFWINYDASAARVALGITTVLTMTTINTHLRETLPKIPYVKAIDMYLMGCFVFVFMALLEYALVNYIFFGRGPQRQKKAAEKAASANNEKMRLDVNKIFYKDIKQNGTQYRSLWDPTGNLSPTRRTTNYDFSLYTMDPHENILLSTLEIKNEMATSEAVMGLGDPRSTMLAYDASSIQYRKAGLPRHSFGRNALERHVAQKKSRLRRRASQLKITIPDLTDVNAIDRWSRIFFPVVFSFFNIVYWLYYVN
# Sequence of human α3β2γ2 GABAA receptors (P18507 40-475): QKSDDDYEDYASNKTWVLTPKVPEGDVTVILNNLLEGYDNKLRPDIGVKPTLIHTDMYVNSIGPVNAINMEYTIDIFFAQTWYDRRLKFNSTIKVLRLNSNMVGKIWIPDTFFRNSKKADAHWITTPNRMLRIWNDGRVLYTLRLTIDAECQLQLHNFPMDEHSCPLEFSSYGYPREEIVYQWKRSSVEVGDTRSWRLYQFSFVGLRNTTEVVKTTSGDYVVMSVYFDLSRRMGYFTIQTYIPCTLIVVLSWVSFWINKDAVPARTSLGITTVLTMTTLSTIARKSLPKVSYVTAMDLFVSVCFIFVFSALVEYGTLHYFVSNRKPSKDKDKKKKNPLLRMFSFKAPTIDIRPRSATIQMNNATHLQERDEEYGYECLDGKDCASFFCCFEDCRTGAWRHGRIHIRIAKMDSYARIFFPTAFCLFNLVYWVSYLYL
# Sequence of human α5β2γ2 GABAA receptors (P31644 32-462): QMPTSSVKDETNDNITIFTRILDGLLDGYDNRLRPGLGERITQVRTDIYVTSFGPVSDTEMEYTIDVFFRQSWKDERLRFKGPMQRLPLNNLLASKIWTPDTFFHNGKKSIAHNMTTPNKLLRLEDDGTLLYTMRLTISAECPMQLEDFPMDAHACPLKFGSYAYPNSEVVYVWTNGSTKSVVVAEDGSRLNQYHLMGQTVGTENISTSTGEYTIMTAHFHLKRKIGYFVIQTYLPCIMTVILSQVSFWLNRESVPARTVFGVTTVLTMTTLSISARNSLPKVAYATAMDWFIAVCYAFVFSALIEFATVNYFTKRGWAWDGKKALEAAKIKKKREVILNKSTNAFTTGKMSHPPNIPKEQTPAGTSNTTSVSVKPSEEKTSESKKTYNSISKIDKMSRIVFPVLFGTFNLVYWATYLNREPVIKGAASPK
# Sequence of human α5β2γ2 GABAA receptors (P47870 25-512 limits assumed): as the sequence (P47870 25-512 limits assumed) above
# Sequence of human α5β2γ2 GABAA receptors (P18507 40-475): as the sequence (P18507 40-475) above
# Sequence of human α2β2γ2 GABAA receptors (P47869 29-451): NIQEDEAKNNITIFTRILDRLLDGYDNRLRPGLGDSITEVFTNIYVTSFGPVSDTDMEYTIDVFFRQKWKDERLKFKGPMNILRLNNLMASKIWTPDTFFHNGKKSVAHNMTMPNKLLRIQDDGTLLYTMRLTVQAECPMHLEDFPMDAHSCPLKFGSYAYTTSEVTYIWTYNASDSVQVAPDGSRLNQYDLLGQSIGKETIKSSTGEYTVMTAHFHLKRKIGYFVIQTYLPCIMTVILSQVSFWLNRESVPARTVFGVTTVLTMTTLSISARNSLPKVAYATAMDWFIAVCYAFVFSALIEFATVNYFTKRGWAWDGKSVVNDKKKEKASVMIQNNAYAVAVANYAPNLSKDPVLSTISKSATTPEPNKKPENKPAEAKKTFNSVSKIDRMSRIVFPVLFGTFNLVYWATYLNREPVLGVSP
# Sequence of human α2β2γ2 GABAA receptors (P47870 25-512 limits assumed): as the sequence (P47870 25-512 limits assumed) above
# Sequence of human α2β2γ2 GABAA receptors (P18507 40-475): as the sequence (P18507 40-475) above
# Sequence of human Nav1.3 sodium channels (Q9NY46 whole entry): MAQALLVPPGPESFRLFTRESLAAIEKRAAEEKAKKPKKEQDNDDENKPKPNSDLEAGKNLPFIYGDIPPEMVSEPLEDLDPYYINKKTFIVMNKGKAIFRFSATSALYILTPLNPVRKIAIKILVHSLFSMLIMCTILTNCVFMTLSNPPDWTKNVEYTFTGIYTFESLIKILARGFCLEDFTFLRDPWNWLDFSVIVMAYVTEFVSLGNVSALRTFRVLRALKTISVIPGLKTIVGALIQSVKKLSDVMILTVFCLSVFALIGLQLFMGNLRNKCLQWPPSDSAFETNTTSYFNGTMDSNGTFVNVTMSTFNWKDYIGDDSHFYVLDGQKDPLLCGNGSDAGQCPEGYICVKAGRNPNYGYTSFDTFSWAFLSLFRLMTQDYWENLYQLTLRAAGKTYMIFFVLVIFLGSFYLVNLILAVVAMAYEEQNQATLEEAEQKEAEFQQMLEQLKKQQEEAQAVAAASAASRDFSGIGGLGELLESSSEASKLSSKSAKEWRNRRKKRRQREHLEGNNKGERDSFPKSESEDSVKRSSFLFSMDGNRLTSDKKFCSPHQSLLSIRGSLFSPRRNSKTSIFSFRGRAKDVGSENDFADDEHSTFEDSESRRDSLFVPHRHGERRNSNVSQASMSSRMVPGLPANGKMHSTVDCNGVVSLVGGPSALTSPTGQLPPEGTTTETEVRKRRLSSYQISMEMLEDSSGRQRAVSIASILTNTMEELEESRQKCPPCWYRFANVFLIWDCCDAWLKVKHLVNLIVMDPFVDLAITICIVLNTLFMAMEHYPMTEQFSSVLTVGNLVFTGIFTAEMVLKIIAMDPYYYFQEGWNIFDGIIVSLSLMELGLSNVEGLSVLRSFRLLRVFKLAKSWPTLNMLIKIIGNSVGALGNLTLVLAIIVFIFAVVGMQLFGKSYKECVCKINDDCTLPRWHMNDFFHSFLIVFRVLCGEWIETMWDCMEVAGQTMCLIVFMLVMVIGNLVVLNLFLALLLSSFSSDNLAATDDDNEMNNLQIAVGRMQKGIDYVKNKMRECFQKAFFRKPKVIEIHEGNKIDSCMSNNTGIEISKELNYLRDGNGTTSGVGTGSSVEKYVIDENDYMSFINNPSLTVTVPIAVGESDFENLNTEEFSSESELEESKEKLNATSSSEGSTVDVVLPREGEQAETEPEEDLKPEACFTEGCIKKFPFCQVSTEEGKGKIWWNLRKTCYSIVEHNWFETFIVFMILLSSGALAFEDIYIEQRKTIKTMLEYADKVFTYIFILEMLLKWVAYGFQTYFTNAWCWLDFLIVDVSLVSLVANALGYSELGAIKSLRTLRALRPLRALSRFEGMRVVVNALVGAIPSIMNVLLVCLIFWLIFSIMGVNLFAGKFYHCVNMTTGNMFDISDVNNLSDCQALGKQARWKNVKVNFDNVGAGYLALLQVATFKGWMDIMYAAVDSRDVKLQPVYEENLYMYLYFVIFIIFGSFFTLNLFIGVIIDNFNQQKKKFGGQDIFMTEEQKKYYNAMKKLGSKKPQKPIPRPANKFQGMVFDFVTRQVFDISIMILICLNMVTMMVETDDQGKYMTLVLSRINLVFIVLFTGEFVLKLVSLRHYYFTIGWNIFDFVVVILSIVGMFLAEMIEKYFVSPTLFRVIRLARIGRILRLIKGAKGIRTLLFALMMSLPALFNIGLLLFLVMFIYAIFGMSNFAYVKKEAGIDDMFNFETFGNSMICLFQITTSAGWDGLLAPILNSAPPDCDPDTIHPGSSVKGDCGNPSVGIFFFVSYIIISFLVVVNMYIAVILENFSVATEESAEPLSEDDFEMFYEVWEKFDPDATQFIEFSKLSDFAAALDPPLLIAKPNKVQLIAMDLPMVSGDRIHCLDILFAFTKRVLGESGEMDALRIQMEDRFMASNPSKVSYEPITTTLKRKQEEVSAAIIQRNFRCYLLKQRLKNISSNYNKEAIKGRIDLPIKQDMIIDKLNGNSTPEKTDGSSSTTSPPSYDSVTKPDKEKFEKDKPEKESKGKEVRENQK
# Sequence of Protease, caspase, CASP-8 (h) (Q14790 217-374 limits assumed): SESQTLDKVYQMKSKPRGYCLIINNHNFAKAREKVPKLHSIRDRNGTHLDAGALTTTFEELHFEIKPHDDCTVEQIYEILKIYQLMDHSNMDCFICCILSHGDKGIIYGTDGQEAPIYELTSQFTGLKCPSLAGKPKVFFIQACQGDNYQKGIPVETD
# Sequence of Protease, caspase, CASP-8 (h) (Q14790 385-479 limits assumed): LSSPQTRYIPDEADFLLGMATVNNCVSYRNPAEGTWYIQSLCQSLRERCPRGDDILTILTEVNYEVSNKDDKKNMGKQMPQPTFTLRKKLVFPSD
# Sequence of Anhydrase, carbonic, isozyme I (h) (P00915 whole entry): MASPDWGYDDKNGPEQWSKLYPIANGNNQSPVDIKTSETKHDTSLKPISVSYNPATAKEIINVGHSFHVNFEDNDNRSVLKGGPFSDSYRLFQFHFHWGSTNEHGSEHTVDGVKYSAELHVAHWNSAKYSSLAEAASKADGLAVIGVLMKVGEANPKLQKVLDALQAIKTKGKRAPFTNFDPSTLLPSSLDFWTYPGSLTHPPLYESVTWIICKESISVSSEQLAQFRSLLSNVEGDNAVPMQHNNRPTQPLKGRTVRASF
smiles,measurement,setting,value
NC(=O)N1c2ccccc2C[C@H](O)c2ccccc21 [eslicarbazepine],% inhibition,[1],0.45%
same,% inhibition,[2],25.95%
same,% inhibition,[3],32.83%
same,inhibition at 400 µM,"Dopamine, D2s (h)",0%
same,% inhibition,"Neurokinin, NK1",12.58%
same,% inhibition,"Serotonin, 5HT3",10.41%
same,% inhibition,"Glutamate, mGluR5",14.42%
same,"GABA inward current stimulation, α5β2γ2, Mean ± SEM",[4]; 50 μmol/L,95.2 ± 2.2
same,"GABA inward current stimulation, α5β2γ2, Mean ± SEM",[4]; 100 μmol/L,93.9 ± 0.6
same,"GABA inward current stimulation, α5β2γ2, Mean ± SEM",[4]; 250 μmol/L,93.5 ± 1.8
same,"GABA inward current stimulation, α5β2γ2, Mean ± SEM",[4]; 500 μmol/L,89.7 ± 3.4
same,effect on submaximal α5β2γ2 GABA currents,[4]; 50–500 μmol/L,did not significantly change submaximal GABA currents
same,inhibition at 400 µM,"Adrenergic, alpha2A (h)",15.6%
same,inhibition at 400 µM,[5],0%
same,% inhibition,Sigma 1,28.43%
same,inhibition at 400 µM,"Serotonin, 5HT2A (h)",19.2%
same,% inhibition,"Melatonin, nonselective",17.43%
same,inhibition at 400 µM,Dopamine transporter (h),2.85%
same,inhibition at 400 µM,"Dopamine, D4.2 (h)",0%
same,inhibition at 400 µM,[6],27.7%
same,% inhibition,"GABA A, agonist site",0.0%
same,inhibition at 400 µM,Neurotensin (h),4.94%
same,% inhibition,"Oxidase, MAO-A, central",15.98%
same,% inhibition,[7],11.43%
same,INaP in Scn1b null mice,[8]; Scn1b null mice,did not cause a paradoxical upregulation of INaP
same,maximal INaP conductance and firing rate,[8]; wild-type mice,significantly reduce maximal INaP conductance and efficiently decrease the firing rate
same,Fast inactivation V0.5,"[9]; mean ± SEM, n = 3–6",−40.68 ± 3.10 mV
same,Slow inactivation V0.5,"[9]; mean ± SEM, n = 3–6",−26.61 ± 2.74 mV
same,time constant for entering the slow inactivated state,[9]; control 20.29 sec,14.02 s
same,% inhibition,[10],6.78%
same,% inhibition,"Glutamate, MK-801 site",15.45%
same,% inhibition,[11],9.36%
same,inhibition at 400 µM,[12],0%
same,% inhibition,"Serotonin, 5HT2C",3.67%
same,Brain (whole volume) Eslicarbazepine,[13]; [20],37.5 nmol/g
same,Plasma eslicarbazepine,[13]; [20],236.2 µmol/L
same,Brain (whole volume) Eslicarbazepine,[13]; [21],58.7 nmol/g
same,Plasma eslicarbazepine,[13]; [21],282.8 µmol/L
same,Brain (whole volume) Eslicarbazepine,[13]; [22],67.7 nmol/g
same,Plasma eslicarbazepine,[13]; [22],168.1 µmol/L
same,Brain (whole volume) Eslicarbazepine,[13]; [23],22 nmol/g and 22.0 nmol/g
same,Plasma eslicarbazepine,[13]; [23],32 µmol/L and 31.5 µmol/L
same,inhibition at 400 µM,"Kinase, protein, Fyn (h)",3.58%
same,"IC50, AMPA currents",human GRIA1 receptor,neither eslicarbazepine nor CBZ significantly changed AMPA currents
same,% inhibition,[14],17.45%
same,"GABA inward current stimulation, α2β2γ2, Mean ± SEM",[15]; 50 μmol/L,91.6 ± 2.7
same,"GABA inward current stimulation, α2β2γ2, Mean ± SEM",[15]; 100 μmol/L,97.0 ± 2.7
same,"GABA inward current stimulation, α2β2γ2, Mean ± SEM",[15]; 250 μmol/L,88.6 ± 3.2
same,effect on submaximal α2β2γ2 GABA currents,[15]; 250 μmol/L,slight decrease
same,"GABA inward current stimulation, α2β2γ2, Mean ± SEM",[15]; 500 μmol/L,89.8 ± 4.0
same,effect on submaximal α2β2γ2 GABA currents,"[15]; 50–500 μmol/L, exception at 250 μmol/L",did not significantly change submaximal GABA currents
same,% inhibition,"Glutamate, kainate site",1.56%
same,% inhibition,[16],13.21%
same,inhibition at 400 µM,[17],0%
same,IC50,hCav2.1 calcium channels,7.84 mM
same,"GABA inward current stimulation, α3β2γ2, Mean ± SEM",[18]; 50 μmol/L,95.6 ± 4.8
same,"GABA inward current stimulation, α3β2γ2, Mean ± SEM",[18]; 100 μmol/L,97.9 ± 4.2
same,"GABA inward current stimulation, α3β2γ2, Mean ± SEM",[18]; 250 μmol/L,96.4 ± 2.2
same,"GABA inward current stimulation, α3β2γ2, Mean ± SEM",[18]; 500 μmol/L,91.6 ± 5.6
same,effect on submaximal α3β2γ2 GABA currents,[18]; 50–500 μmol/L,did not significantly change submaximal GABA currents
same,inhibition at 400 µM,[19],5.93%
